One data set deals with Met kinase (Homo sapiens, UniProt P08581). Put plainly: Met kinase inhibition (cell assay). The data set is classed as cell-based.

pIC50: −log10 of the molar value. Structures can show the parent of a compound that is named as a salt.

Data on 42 compounds can be found in patent US8071593B2, “2-oxo-3-benzylbenzoxazol-2-one derivatives and related compounds as Met kinase inhibitors for the treatment of tumours” (Merck Patent Gesellschaft mit beschrankter Haftung, priority 2007, dated 2011).

Sequence of Met kinase (P08581 25-1390): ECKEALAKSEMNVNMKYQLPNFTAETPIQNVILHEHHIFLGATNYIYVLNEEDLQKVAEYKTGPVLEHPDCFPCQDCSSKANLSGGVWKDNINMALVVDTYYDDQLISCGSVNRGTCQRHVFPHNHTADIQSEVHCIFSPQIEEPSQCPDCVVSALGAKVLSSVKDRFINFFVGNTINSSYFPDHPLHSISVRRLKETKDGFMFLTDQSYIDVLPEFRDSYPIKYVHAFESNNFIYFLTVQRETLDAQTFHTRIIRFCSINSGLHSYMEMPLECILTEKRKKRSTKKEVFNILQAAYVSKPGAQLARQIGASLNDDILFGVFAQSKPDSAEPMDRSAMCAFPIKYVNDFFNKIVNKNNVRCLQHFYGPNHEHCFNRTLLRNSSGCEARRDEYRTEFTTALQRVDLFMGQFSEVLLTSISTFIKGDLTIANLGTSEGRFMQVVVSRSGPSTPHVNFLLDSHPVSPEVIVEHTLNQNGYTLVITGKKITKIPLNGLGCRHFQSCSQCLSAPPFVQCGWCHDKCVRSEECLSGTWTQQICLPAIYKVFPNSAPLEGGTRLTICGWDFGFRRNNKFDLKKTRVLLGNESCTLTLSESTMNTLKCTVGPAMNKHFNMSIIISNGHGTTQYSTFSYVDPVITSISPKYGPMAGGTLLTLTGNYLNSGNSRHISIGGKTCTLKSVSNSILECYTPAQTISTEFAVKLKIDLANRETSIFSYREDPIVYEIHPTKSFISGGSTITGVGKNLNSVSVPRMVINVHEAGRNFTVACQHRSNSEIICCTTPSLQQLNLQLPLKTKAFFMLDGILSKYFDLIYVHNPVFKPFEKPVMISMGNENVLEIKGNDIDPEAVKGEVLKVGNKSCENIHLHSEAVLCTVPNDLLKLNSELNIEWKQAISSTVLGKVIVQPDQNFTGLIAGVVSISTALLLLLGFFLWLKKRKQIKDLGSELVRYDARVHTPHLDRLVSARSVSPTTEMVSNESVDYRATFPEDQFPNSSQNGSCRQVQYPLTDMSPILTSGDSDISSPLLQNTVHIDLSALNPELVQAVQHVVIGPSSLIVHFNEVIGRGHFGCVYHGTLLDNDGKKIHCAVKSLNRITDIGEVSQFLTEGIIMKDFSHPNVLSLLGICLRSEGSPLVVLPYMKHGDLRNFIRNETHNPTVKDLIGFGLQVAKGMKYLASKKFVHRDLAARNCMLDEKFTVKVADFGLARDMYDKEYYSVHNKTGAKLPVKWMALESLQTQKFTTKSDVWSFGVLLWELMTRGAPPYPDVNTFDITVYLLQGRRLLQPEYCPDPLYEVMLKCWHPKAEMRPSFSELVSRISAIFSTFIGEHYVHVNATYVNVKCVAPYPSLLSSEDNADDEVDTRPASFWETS

Consider `CC(c1cccc(NC(=O)OCCN2CCN(C)CC2)c1)n1c(=O)oc2cc(F)c(F)cc21` (stereo not drawn) (as salt: hydrochloride) [Compound A27, 2-(4-methylpiperazin-1-yl)ethyl {3-[1-(5,6-difluoro-2-oxobenzoxazol-3-yl)ethyl]phenyl}carbamate], for which the melting point (in general, the temperature, or range, at which the solid turns liquid) is 236 to 238 °C (dec.). In the case of `COc1ccc2oc(=O)n(Cc3cccc(NC(=O)OCCCN4CCN(C)CC4)c3)c2c1` [Compound A1, 3-(4-methylpiperazin-1-yl)propyl [3-(5-methoxy-2-oxobenzooxazol-3-ylmethyl)phenyl]carbamate], the pIC50 (usually the negative decadic logarithm of the IC50, by convention in mol/L) against Met kinase is 6.00 to 8.00.

For the compound `CN1CCN(CCCOC(=O)Nc2cccc(Cn3c(=O)oc4ccc(Cl)cc43)c2)CC1` [Compound A2], the negative logarithm of the IC50 (pIC50) at Met kinase is 6.00 to 8.00.

For the compound `CN1CCN(CCCOC(=O)Nc2cccc(Cn3c(=O)oc4ccc(C(=O)N(C)C)cc43)c2)CC1` [Compound A3, 3-(4-Methylpiperazin-1-yl)propyl [3-(5-dimethylcarbamoyl-2-oxobenzoxazol-3-ylmethyl)phenyl]carbamate], the pIC50 at Met kinase is 6.00 to 8.00. Still for that read-out and setting: under `CN(C)C(=O)c1ccc2oc(=O)n(Cc3cccc(NC(=O)OCCCN4CCNCC4)c3)c2c1` [Compound A4, 3-Piperazin-1-ylpropyl [3-(5-dimethylcarbamoyl-2-oxobenzoxazol-3-ylmethyl)phenyl]carbamate] stands 6.00 to 8.00; under `CCCNC(=O)c1ccc2oc(=O)n(Cc3cccc(NC(=O)OCCCN4CCN(C)CC4)c3)c2c1` [Compound A5, 3-(4-Methylpiperazin-1-yl)propyl [3-(5-propylcarbamoyl-2-oxobenzoxazol-3-ylmethyl)phenyl]carbamate], 6.00 to 8.00.

`CN1CCN(CCCOC(=O)Nc2cccc(Cn3c(=O)oc4cc(Cl)ccc43)c2)CC1` [Compound A6, 3-(4-Methylpiperazin-1-yl)propyl [3-(6-chloro-2-oxobenzoxazol-3-ylmethyl)phenyl]carbamate] had a negative logarithm of the IC50 (pIC50) against Met kinase of 6.00 to 8.00.

For the compound `Cc1ccc2oc(=O)n(Cc3cccc(NC(=O)OCCCN4CCN(C)CC4)c3)c2c1` [Compound A7, 3-(4-Methylpiperazin-1-yl)propyl [3-(5-methyl-2-oxobenzoxazol-3-ylmethyl)phenyl]carbamate], the negative logarithm of the IC50 (pIC50) against Met kinase was 6.00 to 8.00.

On Met kinase, `CC(=O)c1ccc2oc(=O)n(Cc3cccc(NC(=O)OCCCN4CCN(C)CC4)c3)c2c1` [Compound A8, 3-(4-Methylpiperazin-1-yl)propyl [3-(5-acetyl-2-oxobenzoxazol-3-ylmethyl)phenyl]carbamate] showed a negative-log IC50 (pIC50) of 6.00 to 8.00. On the same count and under the same terms, under `CC(O)c1ccc2c(c1)oc(=O)n2Cc1cccc(NC(=O)OCCCN2CCN(C)CC2)c1` (stereo not drawn) [Compound A9, 3-(4-methylpiperazin-1-yl)propyl {3-[6-(1-hydroxyethyl)-2-oxobenzoxazol-3-ylmethyl]phenyl}carbamate] stands 6.00 to 8.00; under `CCCNC(=O)c1ccc2oc(=O)n(Cc3cccc(NC(=O)OCCCN4CCNCC4)c3)c2c1` [Compound A10, 3-Piperazin-1-ylpropyl [3-(5-propylcarbamoyl-2-oxobenzoxazol-3-ylmethyl)phenyl]carbamate], 6.00 to 8.00. The same measure, in the same setting: under `CN(C)CCCOC(=O)Nc1cccc(Cn2c(=O)oc3cccnc32)c1` [Compound A11, 3-Dimethylaminopropyl [3-(2-oxooxazolo[4,5-b]pyridin-3-ylmethyl)phenyl]carbamate] stands 6.00 to 8.00; under `CN(C)CCCOC(=O)Nc1cccc(Cn2c(=O)oc3ccc(C(=O)N(C)C)cc32)c1` [Compound A12, 3-Dimethylaminopropyl [3-(5-dimethylcarbamoyl-2-oxobenzoxazol-3-ylmethyl)phenyl]carbamate], 6.00 to 8.00. Turning to `CCCNC(=O)c1ccc2oc(=O)n(Cc3cccc(NC(=O)OCCCN(C)C)c3)c2c1` [Compound A13, 3-Dimethylaminopropyl [3-(5-propylcarbamoyl-2-oxobenzoxazol-3-ylmethyl)phenyl]carbamate], the pIC50 against Met kinase is 6.00 to 8.00. Same read-out and setting: under `COC(=O)c1ccc2c(c1)oc(=O)n2Cc1cccc(NC(=O)OCCCN(C)C)c1` [Compound A14, 3-Dimethylaminopropyl [3-(6-methoxycarbonyl-2-oxobenzoxazol-3-ylmethyl)phenyl]carbamate] stands 6.00 to 8.00. For `COC(=O)c1ccc2oc(=O)n(Cc3cccc(NC(=O)OCCCN(C)C)c3)c2c1` [Compound A15, 3-Dimethylaminopropyl [3-(5-methoxycarbonyl-2-oxobenzoxazol-3-ylmethyl)phenyl]carbamate], on Met kinase, the negative-log IC50 (pIC50) was 6.00 to 8.00. Still for that read-out and setting: the value for `CN(C)CCCOC(=O)Nc1cccc(Cn2c(=O)oc3ccccc32)c1` [Compound A16, 3-Dimethylaminopropyl [3-(2-oxobenzoxazol-3-ylmethyl)phenyl]carbamate] was 6.00 to 8.00; that for `CN1CCN(CCOC(=O)Nc2cccc(Cn3c(=O)oc4ccccc43)c2)CC1` [Compound A17, 2-(4-Methylpiperazin-1-yl)ethyl [3-(2-oxobenzoxazol-3-ylmethyl)phenyl]carbamate] was 6.00 to 8.00; that for `CN1CCN(CCCOC(=O)Nc2cccc(Cn3c(=O)oc4ccccc43)c2)CC1` [Compound A18, 3-(4-Methylpiperazin-1-yl)propyl [3-(2-oxobenzoxazol-3-ylmethyl)phenyl]carbamate] was 6.00 to 8.00.

At Met kinase, `CN1CCN(CCCOC(=O)Nc2cccc(Cn3c(=O)oc4cc(F)c(F)cc43)c2)CC1` [Compound A19, 3-(4-Methylpiperazin-1-yl)propyl [3-(5,6-difluoro-2-oxobenzoxazol-3-ylmethyl)phenyl]carbamate] showed a pIC50 of 6.00 to 8.00. As to `COc1ccc2c(c1)oc(=O)n2Cc1cccc(NC(=O)OCCCN2CCN(C)CC2)c1` [Compound A20, 3-(4-Methylpiperazin-1-yl)propyl [3-(6-methoxy-2-oxobenzoxazol-3-ylmethyl)phenyl]carbamate], on Met kinase, the pIC50 was 6.00 to 8.00. Still for that read-out and setting: under `Cc1ccc2c(c1)oc(=O)n2Cc1cccc(NC(=O)OCCCN2CCN(C)CC2)c1` [Compound A21, 3-(4-Methylpiperazin-1-yl)propyl [3-(6-methyl-2-oxobenzoxazol-3-ylmethyl)phenyl]carbamate] stands 6.00 to 8.00; under `CC(=O)c1ccc2c(c1)oc(=O)n2Cc1cccc(NC(=O)OCCCN2CCN(C)CC2)c1` [Compound A22, 3-(4-Methylpiperazin-1-yl)propyl [3-(6-acetyl-2-oxobenzoxazol-3-ylmethyl)phenyl]carbamate], 6.00 to 8.00. Still for that read-out and setting: the value for `CCOC(=O)Nc1cccc(Cn2c(=O)oc3ccc(C(=O)NCCN(C)C)cc32)c1` [Compound A30, Ethyl {3-[5-(2-dimethylaminoethylcarbamoyl)-2-oxobenzoxazol-3-ylmethyl]phenyl}carbamate] was 6.00 to 8.00; that for `CCOC(=O)Nc1cccc(Cn2c(=O)oc3ccc(C(=O)NCCCN(C)C)cc32)c1` [Compound A31, Ethyl {3-[5-(3-dimethylaminopropylcarbamoyl)-2-oxobenzoxazol-3-ylmethyl]phenyl}carbamate] was 6.00 to 8.00. The same measure, in the same setting: under `CCOC(=O)Nc1cccc(C(C)n2c(=O)oc3ccc(C(=O)NCCCCN(C)C)cc32)c1` (stereo not drawn) [Compound A32, Ethyl (3-{1-[5-(4-dimethylaminobutylcarbamoy1)-2-oxobenzoxazol-3-yl]ethyl}phenyl)carbamate] stands 6.00 to 8.00; under `CCOC(=O)Nc1cccc(C(C)n2c(=O)oc3ccc(C(=O)NCCN(C)C)cc32)c1` (stereo not drawn) [Compound A33, Ethyl (3-{1-[5-(2-dimethylaminoethylcarbamoy1)-2-oxobenzoxazol-3-yl]ethyl}phenyl)carbamate], 6.00 to 8.00.

As to `CN(C)CCCCNC(=O)c1ccc2oc(=O)n(Cc3ccc4[nH]c(=O)[nH]c4c3)c2c1` [Compound A34, N-(4-Dimethylaminobutyl)-2-oxo-3-(2-oxo-2,3-dihydro-1H-benzimidazol-5-ylmethyl)-2,3-dihydrobenzoxazole-5-carboxamide], on Met kinase, the pIC50 is 6.00 to 8.00.

With `CN(C)CCNC(=O)c1ccc2oc(=O)n(Cc3ccc4[nH]c(=O)[nH]c4c3)c2c1` [Compound A35, N-(2-dimethylaminoethyl)-2-oxo-3-(2-oxo-2,3-dihydro-1H-benzoimidazol-5-ylmethyl)-2,3-dihydrobenzoxazole-5-carboxamide], the pIC50 at Met kinase was 6.00 to 8.00.

For `CCOC(=O)Nc1cccc(C(C)n2c(=O)oc3ccc(C(=O)NCCCN(C)C)cc32)c1` (stereo not drawn) [Compound A36, Ethyl (3-{1-[5-(3-dimethylaminopropylcarbamoy1)-2-oxobenzoxazol-3-yl]ethyl}phenyl)carbamate], on Met kinase, the pIC50 was 6.00 to 8.00. Same read-out and setting: the value for `CCOC(=O)Nc1cccc(Cn2c(=O)oc3cc(C(=O)OC)ccc32)c1` [Compound A37, Methyl 3-(3-ethoxycarbonylaminobenzyl)-2-oxo-2,3-dihydrobenzoxazole-6-carboxylate] was 6.00 to 8.00; that for `CN(C)CCCOc1cnc(-c2cccc(Cn3c(=O)oc4ccc(C#N)cc43)c2)nc1` [Compound A66] was 6.00 to 8.00; that for `CC(=O)c1ccc2oc(=O)n(Cc3cccc(-c4ncc(OCCCN(C)C)cn4)c3)c2c1` [Compound A67] was 6.00 to 8.00. Still for that read-out and setting: under `CN(C)CCCOc1cnc(-c2cccc(Cn3c(=O)oc4cc([N+](=O)[O-])ccc43)c2)nc1` [Compound A76] stands 6.00 to 8.00.

In the case of `Cc1ccc2oc(=O)n(Cc3cccc(-c4ncc(OCCN5CCOCC5)cn4)c3)c2n1` [Compound A79], the pIC50 on Met kinase is 6.00 to 8.00. `CCS(=O)(=O)c1ccc2oc(=O)n(Cc3cccc(-c4ncc(OCCCN(C)C)cn4)c3)c2c1` [Compound A82] showed a pIC50 against Met kinase of 6.00 to 8.00.

At Met kinase, `Cc1ccc2oc(=O)n(Cc3cccc(-c4ncc(OCC5CCNCC5)cn4)c3)c2n1` [Compound A87] showed a pIC50 of 6.00 to 8.00. In turn, `CN(C)CCCOc1cnc(-c2cccc(Cn3c(=O)oc4cc(S(=O)(=O)CCO)ccc43)c2)nc1` [Compound A92] had a pIC50 against Met kinase of 5.00 to 6.00. Still for that read-out and setting: under `CN(C)CCCOc1cnc(-c2cccc(Cn3c(=O)oc4cc(F)c(F)cc43)c2)nc1` [Compound A93] stands 5.00 to 6.00.

On to `CN(C)CCCOc1cnc(-c2cccc(Cn3c(=O)oc4ncccc43)c2)nc1` [Compound A95], for which the pIC50 against Met kinase is 5.00 to 6.00. The same measure, in the same setting: under `CN(C)CCCOc1cnc(-c2cccc(Cn3c(=O)oc4cc5ccccc5cc43)c2)nc1` [Compound A96] stands 6.00 to 8.00; under `O=c1oc2c3ncccc3ccc2n1Cc1cccc(-c2ncc(OCCN3CCOCC3)cn2)c1` [Compound A103], 5.00 to 6.00.
